# Literature values, collected in patent publication US20150031774A1, “RASAGILINE ORALLY DISINTEGRATING COMPOSITIONS” (priority 2004, published 2015).
# Target: 9-form of the enzyme monoamine oxidase (Homo sapiens, UniProt P27338)
# Details: prior-art patents cited in background
# Sequence of 9-form of the enzyme monoamine oxidase (P27338 whole entry): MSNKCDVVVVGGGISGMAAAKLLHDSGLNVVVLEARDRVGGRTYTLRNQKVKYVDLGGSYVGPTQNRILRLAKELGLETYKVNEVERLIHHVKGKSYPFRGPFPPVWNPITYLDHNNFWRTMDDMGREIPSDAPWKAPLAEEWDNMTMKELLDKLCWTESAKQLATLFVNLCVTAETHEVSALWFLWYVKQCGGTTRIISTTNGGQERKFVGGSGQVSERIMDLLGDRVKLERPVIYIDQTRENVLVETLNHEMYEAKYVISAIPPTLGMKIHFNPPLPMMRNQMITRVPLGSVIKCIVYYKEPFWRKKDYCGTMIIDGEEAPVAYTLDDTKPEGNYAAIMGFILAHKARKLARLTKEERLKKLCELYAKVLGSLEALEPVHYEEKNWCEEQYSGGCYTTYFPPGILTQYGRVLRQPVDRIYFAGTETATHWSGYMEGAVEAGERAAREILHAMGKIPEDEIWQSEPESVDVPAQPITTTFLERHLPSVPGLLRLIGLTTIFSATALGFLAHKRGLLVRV
smiles,measurement,value
"C#CCN[C@@H]1CCc2ccccc21 [Rasagiline, R(+)-propargyl-1-aminoindan]",selectivity of monoamine oxidase inhibition,selective inhibitor
